What was measured:
Format in all cases: physicochemical
[1] = Specific powder surface area by nitrogen gas sorption (BET); conditions: triplicate, trihydrate
Method: Specific powder surface area was determined using nitrogen gas sorption (Smartsorb, Smart Instruments, Mumbai, India). Prior to measurements, samples were regenerated by degassing to remove moisture and contamination. The regenerated sample was dipped in liquid nitrogen and the quantity of the adsorbed gas was measured using a thermal conductivity detector and subsequently integrated using an electronic circuit in terms of counts. The instrument was calibrated by injecting a known quantity of nitrogen. The measured parameters were subsequently used to calculate the surface area of the sample by employing the adsorption theories of Brunauer, Emmett and Teller (BET).
(§1) Parameters operated were: • Augar Speed: 5-90 rpm • Primary Air Pressure: 2-8 kg·cm^−2 • Secondary Air Pressure: 4-10 kg·cm^−2 The surface area (in triplicate), average particle size and contact angle (in quadruplicate) were determined as outlined in the General section. The purity of the amoxicillin trihydrate samples was 99.4±0.3% and were void of dichloromethane, isopropanol, pivalic acid and triethyl amine.

[2] = Particle size distribution by laser diffraction (Malvern); conditions: trihydrate
Method: Particle size distribution values D10, D50, D90 and D100 were determined using laser diffraction applying Malvern equipment. A suitable apparatus for determining D10, D50, D90 and D100 is a Malvern particle sizer 2600 C or a Malvern Zeta Sizer.
as §1

[3] = Contact angle by sessile drop method (water); conditions: ambient conditions, trihydrate
Method: Contact angles of amoxicillin trihydrate powder samples were measured by the sessile drop method using an Drop Shape Analyzer instrument (FTA 1000, First Ten Angstrom, Virginia, USA). Powder samples were mounted on double sided adhesive tape adhered to a glass slide and excess powder was removed by tapping the slide. A drop of probe liquid (water) was dispersed onto the sample surface and video images were captured by the FTA image analyzer. The contact angle was calculated by the instrument by fitting a mathematical expression to the shape of the drop followed by calculating the slope of the tangent to the drop at the liquid-solid-vapor interface line. The surface tension of ultrapure ELGA laboratory water was measured to be 73±0.5 mN·m^−1 at 25° C. All measurements were performed in air under ambient conditions and an average of four measurements was reported in the below Examples.
as §1

[4] = Powder dissolution, USP/NF paddle method with HPLC analysis; conditions: 500 mg in 900 mL water, 37 °C, 75 rpm; for Amoxicillin released in solution Mean: mean of 3; for Amoxicillin released in solution #1: replicate #1; for Amoxicillin released in solution #2: replicate #2; for Amoxicillin released in solution #3: replicate #3
Method: Dissolution analysis of amoxicillin trihydrate powder samples was carried out using the USP/NF paddle method at a rotational speed of 75 rpm. Ultrapure ELGA laboratory water (900 mL) was used as dissolution medium. Media were equilibrated to 37.0±0.5° C. prior to dissolution. Amoxicillin trihydrate sample powder (500 mg) was directly added to the dissolution apparatus (Electrolab USP-24, India). Samples were collected at 0, 1, 3, 5, 10, 15, 30, 60 and 90 min, filtered through 0.2 μm filters and analyzed by HPLC. Dissolution profiles were constructed by plotting the percentage amoxicillin released against time.
The HPLC system (Shimadzu Corporation, Kyoto, Japan) comprised of an SCL-10A VP system controller, LC-10AT VP liquid chromatograph, FCV-10AL VP flow control valve, DGU-14A degasser, SIL-10AD VP auto-injector, CTO-10AS VP column oven, SPD-M20A prominence diode array (PDA) detector and data acquisition Class-VP 6.10 software. The HPLC method was adopted from the United States Pharmacopoeia (USP). The method was validated for linearity, precision, accuracy and intra- and inter-day variability. The mobile phase was 50 mM monobasic potassium phosphate:methanol (96:4, v/v, pH 5.0). All analyses were carried out using Lichrospher® 100 RP-18e analytical column (5 μm, Merck KGaA, Darmstadt, Germany) under isocratic conditions at a flow rate of 1.0 mL·min^−1 at 25° C. with 20 μL injection volume. Effluent was monitored at a wavelength of 230 nm. Samples for calibration curve generation were prepared in 50 mM monobasic potassium phosphate:methanol 1:1 (v/v) proportion at a concentration range of 1 to 600 μg·mL^−1.
The three non-micronized (i.e. entries 1-3 of Table 1) and micronized (i.e. entries 4-6 of Table 1) amoxicillin trihydrate samples of Example 1 were subjected to a powder dissolution test (in triplicate) as outlined in the General section.

CC1(C)S[C@@H]2[C@H](NC(=O)[C@H](N)c3ccc(O)cc3)C(=O)N2[C@H]1C(=O)O.O.O.O [entry 3, amoxicillin trihydrate]
Surface Area Mean ± SD (n = 3) [1]: 0.72 ± 0.16 m^2 · g^−1 | Average Particle Size D10 [2]: 13.1 μm | Average Particle Size D50 [2]: 39.3 μm | Average Particle Size D90 [2]: 91.7 μm | Average Particle Size D100 [2]: 230.1 μm | Contact Angle Mean ± SD (n = 4) [3]: 71.54 ± 1.08 | Amoxicillin released in solution Mean ([4]; 0 min): 0% | Amoxicillin released in solution #1 ([4]; 0 min): 0% | Amoxicillin released in solution #2 ([4]; 0 min): 0% | Amoxicillin released in solution #3 ([4]; 0 min): 0% | Amoxicillin released in solution Mean ([4]; 1 min, trihydrate): 59.73% | Amoxicillin released in solution #1 ([4]; 1 min, trihydrate): 57.32% | Amoxicillin released in solution #2 ([4]; 1 min, trihydrate): 60.63% | Amoxicillin released in solution #3 ([4]; 1 min, trihydrate): 61.23% | Amoxicillin released in solution Mean ([4]; 3 min, trihydrate): 97.65% | Amoxicillin released in solution #1 ([4]; 3 min, trihydrate): 96.94% | Amoxicillin released in solution #2 ([4]; 3 min, trihydrate): 97.25% | Amoxicillin released in solution #3 ([4]; 3 min, trihydrate): 98.77% | Amoxicillin released in solution Mean ([4]; 5 min, trihydrate): 99.78% | Amoxicillin released in solution #1 ([4]; 5 min, trihydrate): 99.68% | Amoxicillin released in solution #2 ([4]; 5 min, trihydrate): 100.87% | Amoxicillin released in solution #3 ([4]; 5 min, trihydrate): 98.80% | Amoxicillin released in solution Mean ([4]; 10 min, trihydrate): 99.25% | Amoxicillin released in solution #1 ([4]; 10 min, trihydrate): 99.06% | Amoxicillin released in solution #2 ([4]; 10 min, trihydrate): 99.42% | Amoxicillin released in solution #3 ([4]; 10 min, trihydrate): 99.27% | Amoxicillin released in solution Mean ([4]; 15 min, trihydrate): 100.29% | Amoxicillin released in solution #1 ([4]; 15 min, trihydrate): 100.69% | Amoxicillin released in solution #2 ([4]; 15 min, trihydrate): 100.64% | Amoxicillin released in solution #3 ([4]; 15 min, trihydrate): 99.55% | Amoxicillin released in solution Mean ([4]; 30 min, trihydrate): 99.18% | Amoxicillin released in solution #1 ([4]; 30 min, trihydrate): 99.21% | Amoxicillin released in solution #2 ([4]; 30 min, trihydrate): 99.18% | Amoxicillin released in solution #3 ([4]; 30 min, trihydrate): 99.14% | Amoxicillin released in solution Mean ([4]; 60 min, trihydrate): 100.16% | Amoxicillin released in solution #1 ([4]; 60 min, trihydrate): 99.14% | Amoxicillin released in solution #2 ([4]; 60 min, trihydrate): 100.41% | Amoxicillin released in solution #3 ([4]; 60 min, trihydrate): 100.92% | Amoxicillin released in solution Mean ([4]; 90 min, trihydrate): 99.44% | Amoxicillin released in solution #1 ([4]; 90 min, trihydrate): 99.58% | Amoxicillin released in solution #2 ([4]; 90 min, trihydrate): 99.28% | Amoxicillin released in solution #3 ([4]; 90 min, trihydrate): 99.46%

CC1(C)S[C@@H]2[C@H](NC(=O)[C@H](N)c3ccc(O)cc3)C(=O)N2[C@H]1C(=O)O.O.O.O [entry 4, amoxicillin trihydrate]
Surface Area Mean ± SD (n = 3) [1]: 1.78 ± 0.03 m^2 · g^−1 | Average Particle Size D10 [2]: 1.9 μm | Average Particle Size D50 [2]: 10.1 μm | Average Particle Size D90 [2]: 23.1 μm | Average Particle Size D100 [2]: 44.6 μm | Contact Angle Mean ± SD (n = 4) [3]: 110.68 ± 0.23 | Amoxicillin released in solution Mean ([4]; 0 min): 0% | Amoxicillin released in solution #1 ([4]; 0 min): 0% | Amoxicillin released in solution #2 ([4]; 0 min): 0% | Amoxicillin released in solution #3 ([4]; 0 min): 0% | Amoxicillin released in solution Mean ([4]; 1 min, trihydrate): 56.64% | Amoxicillin released in solution #1 ([4]; 1 min, trihydrate): 54.49% | Amoxicillin released in solution #2 ([4]; 1 min, trihydrate): 57.74% | Amoxicillin released in solution #3 ([4]; 1 min, trihydrate): 57.67% | Amoxicillin released in solution Mean ([4]; 3 min, trihydrate): 77.11% | Amoxicillin released in solution #1 ([4]; 3 min, trihydrate): 76.32% | Amoxicillin released in solution #2 ([4]; 3 min, trihydrate): 76.89% | Amoxicillin released in solution #3 ([4]; 3 min, trihydrate): 78.12% | Amoxicillin released in solution Mean ([4]; 5 min, trihydrate): 84.17% | Amoxicillin released in solution #1 ([4]; 5 min, trihydrate): 85.25% | Amoxicillin released in solution #2 ([4]; 5 min, trihydrate): 82.78% | Amoxicillin released in solution #3 ([4]; 5 min, trihydrate): 84.47% | Amoxicillin released in solution Mean ([4]; 10 min, trihydrate): 87.43% | Amoxicillin released in solution #1 ([4]; 10 min, trihydrate): 88.15% | Amoxicillin released in solution #2 ([4]; 10 min, trihydrate): 86.80% | Amoxicillin released in solution #3 ([4]; 10 min, trihydrate): 87.34% | Amoxicillin released in solution Mean ([4]; 15 min, trihydrate): 89.71% | Amoxicillin released in solution #1 ([4]; 15 min, trihydrate): 90.61% | Amoxicillin released in solution #2 ([4]; 15 min, trihydrate): 89.05% | Amoxicillin released in solution #3 ([4]; 15 min, trihydrate): 89.49% | Amoxicillin released in solution Mean ([4]; 30 min, trihydrate): 93.77% | Amoxicillin released in solution #1 ([4]; 30 min, trihydrate): 93.27% | Amoxicillin released in solution #2 ([4]; 30 min, trihydrate): 95.75% | Amoxicillin released in solution #3 ([4]; 30 min, trihydrate): 91.85% | Amoxicillin released in solution Mean ([4]; 60 min, trihydrate): 98.50% | Amoxicillin released in solution #1 ([4]; 60 min, trihydrate): 97.15% | Amoxicillin released in solution #2 ([4]; 60 min, trihydrate): 99.70% | Amoxicillin released in solution #3 ([4]; 60 min, trihydrate): 98.65% | Amoxicillin released in solution Mean ([4]; 90 min, trihydrate): 99.31% | Amoxicillin released in solution #1 ([4]; 90 min, trihydrate): 97.76% | Amoxicillin released in solution #2 ([4]; 90 min, trihydrate): 99.52% | Amoxicillin released in solution #3 ([4]; 90 min, trihydrate): 100.66%

— patent US9820943B2, “Micronized amoxicillin” (DSM SINOCHEM PHARMACEUTICALS NETHERLANDS B.V., priority 2013, dated 2017)
